Laboratory results reported in the CheMixHub ionic liquid set.

Test: xn = mol fraction of the nth substance listed
Settings: for electrical conductivity: x1 = 0.24

CCCC[n+]1ccn(C)c1.N#C[S-] + CCCCCO
101 kPa
Settings	viscosity [mPa·s]
308.15 K, x2 = 0.0193	31.1
308.15 K, x2 = 0.1443	23.4
318.15 K, x2 = 0.5557	7.31
328.15 K, x2 = 0.7302	3.71
338.15 K, x2 = 0	12.7
338.15 K, x2 = 0.3843	6.75
338.15 K, x2 = 0.616	4.13
348.15 K, x2 = 0.2751	6.6
348.15 K, x2 = 0.3843	5.49
348.15 K, x2 = 0.7914	2.17
348.15 K, x2 = 0.9135	1.5

CCCC[n+]1ccn(C)c1.N#C[S-] + CCCCO
101 kPa
Settings	viscosity [mPa·s]
298.15 K, x2 = 0.5596	11.2
298.15 K, x2 = 0.6222	9.23
298.15 K, x2 = 0.79	5.28
298.15 K, x2 = 0.9738	2.9
308.15 K, x2 = 0.6834	5.8
318.15 K, x2 = 0.0911	19
318.15 K, x2 = 0.5596	6.55
318.15 K, x2 = 0.6222	5.5
318.15 K, x2 = 0.6834	4.59
318.15 K, x2 = 0.9738	1.81
328.15 K, x2 = 0.4552	6.86
328.15 K, x2 = 0.6834	3.72
338.15 K, x2 = 0.5596	4.19
338.15 K, x2 = 0.6222	3.6
348.15 K, x2 = 0.3317	5.78
348.15 K, x2 = 0.8975	1.34
348.15 K, x2 = 0.9738	1

O=S(=O)([N-]S(=O)(=O)C(F)(F)F)C(F)(F)F.O=S(=O)([N-]S(=O)(=O)C(F)(F)F)C(F)(F)F.[Zn+2] + CCCC[N+]1(C)CCCC1.O=S(=O)([N-]S(=O)(=O)C(F)(F)F)C(F)(F)F
100 kPa
Settings	electrical conductivity [S/m]
356.5 K	0.306
409.4 K	1.24

O=S1(=O)CCCC1 + CCCC[N+]1(C)CCCC1.O=S(=O)([N-]S(=O)(=O)C(F)(F)F)C(F)(F)F
101.33 kPa, x2 = 0.5
Settings	viscosity [mPa·s]
303.15 K	25.8
313.15 K	18.6
323.15 K	12.9
333.15 K	9.7
343.15 K	8
353.25 K	6.7

C=CC(=O)OC + CCCC[n+]1ccn(C)c1.F[B-](F)(F)F
101 kPa
Settings	viscosity [mPa·s]
293.15 K, x2 = 0.1387	2.163
293.15 K, x2 = 0.9242	108.1
298.15 K, x2 = 0	0.465
303.15 K, x2 = 0.3354	6.16
303.15 K, x2 = 0.4317	11.33
308.15 K, x2 = 0.8484	39.89
313.15 K, x2 = 0	0.36
318.15 K, x2 = 0	0.334
318.15 K, x2 = 0.6532	12.51
318.15 K, x2 = 0.9242	31.5

OCC(F)(F)F + CCCC[n+]1ccn(C)c1.F[B-](F)(F)F
viscosity [mPa·s], 101 kPa
Settings	x1 = 0.3913	x1 = 0.5788	x1 = 0.7238	x1 = 0.8247	x1 = 0.9013	x1 = 0.9587	x1 = 1
278.15 K	42.31	15.82	7.33	4.71	3.71	3.42	3.28
283.15 K	34.09	13.39	6.37	4.13	3.25	2.97	2.81
288.15 K	27.93	11.45	5.59	3.66	2.88	2.6	2.42
293.15 K	23.21	9.89	4.95	3.27	2.56	2.29	2.11
298.15 K	19.52	8.63	4.41	2.93	2.3	2.03	1.84
303.15 K	16.61	7.59	3.96	2.65	2.07	1.81	1.62
308.15 K	14.28	6.72	3.57	2.41	1.88	1.62	1.43
313.15 K	12.39	6	3.25	2.21	1.71	1.46	1.27
318.15 K	10.84	5.39	2.97	2.02	1.56	1.33	1.13
323.15 K	9.56	4.87	2.72	1.87	1.43	1.21	1.02
328.15 K	8.49	4.42	2.5	1.72	1.31	1.1	0.925
333.15 K	7.59	4.03	2.31	1.59	1.21	1	0.824

OCC(F)(F)F + CCCC[n+]1ccn(C)c1.F[P-](F)(F)(F)(F)F
viscosity [mPa·s], 101 kPa
Settings	x1 = 0.4632	x1 = 0.5646	x1 = 0.7299	x1 = 0.8308	x1 = 0.9417	x1 = 1
278.15 K	51.3	27.28	10.69	6.23	3.8	3.28
283.15 K	40.66	22.32	8.93	5.29	3.26	2.81
288.15 K	32.71	18.39	7.58	4.56	2.84	2.42
293.15 K	26.74	15.36	6.51	3.97	2.49	2.11
298.15 K	22.17	13	5.65	3.49	2.21	1.84
303.15 K	18.63	11.13	4.95	3.09	1.96	1.62
308.15 K	15.84	9.64	4.38	2.76	1.76	1.43
313.15 K	13.61	8.42	3.9	2.49	1.57	1.27
318.15 K	11.81	7.42	3.49	2.25	1.41	1.13
323.15 K	10.34	6.59	3.15	2.05	1.28	1.02
328.15 K	9.12	5.89	2.85	1.88	1.18	0.925
333.15 K	8.1	5.3	2.62	1.73	1.07	0.824

OC[C@H]1O[C@H](O[C@H]2[C@H](O)[C@@H](O)C(O)O[C@@H]2CO)[C@H](O)[C@@H](O)[C@@H]1O (stereo not given in full) + CCCC[n+]1ccn(C)c1.F[P-](F)(F)(F)(F)F + O
viscosity [mPa·s], 100 kPa
Settings	293.15 K	298.15 K	303.15 K	308.15 K	313.15 K
x2 = 0, x1 = 0.0001791	1.019	0.9	0.807	0.721	0.657
x2 = 0, x1 = 0.0005383	1.027	0.911	0.816	0.733	0.667
x2 = 0, x1 = 0.0008971	1.038	0.922	0.827	0.742	0.675
x2 = 0, x1 = 0.001255	1.049	0.931	0.832	0.747	0.68
x2 = 0, x1 = 0.001615	1.059	0.94	0.84	0.755	0.686
x2 = 0.0001835, x1 = 0.001259	1.059	0.947	0.86	0.775	0.69
x2 = 0.0001835, x1 = 0.00162	1.07	0.956	0.866	0.782	0.696
x2 = 0.0001836, x1 = 0.0008988	1.049	0.937	0.851	0.768	0.684
x2 = 0.0001837, x1 = 0.0001798	1.03	0.92	0.834	0.751	0.667
x2 = 0.0001837, x1 = 0.0005398	1.037	0.926	0.841	0.76	0.676
x2 = 0.0005376, x1 = 0.001627	1.084	0.97	0.873	0.783	0.709
x2 = 0.0005378, x1 = 0.001265	1.074	0.96	0.864	0.776	0.702
x2 = 0.000538, x1 = 0.0009039	1.064	0.949	0.856	0.769	0.695
x2 = 0.0005382, x1 = 0.0005419	1.052	0.939	0.846	0.76	0.688
x2 = 0.0005384, x1 = 0.0001809	1.043	0.93	0.837	0.752	0.68
x2 = 0.0008951, x1 = 0.001637	1.098	0.976	0.878	0.792	0.713
x2 = 0.0008955, x1 = 0.001273	1.089	0.967	0.869	0.784	0.707
x2 = 0.0008958, x1 = 0.0009101	1.08	0.959	0.861	0.778	0.701
x2 = 0.0008961, x1 = 0.0005458	1.064	0.946	0.851	0.768	0.693
x2 = 0.0008964, x1 = 0.0001816	1.057	0.938	0.842	0.761	0.685
x2 = 0.00126, x1 = 0.0009162	1.084	0.969	0.876	0.79	0.708
x2 = 0.00126, x1 = 0.001282	1.096	0.979	0.883	0.797	0.714
x2 = 0.00126, x1 = 0.001648	1.106	0.989	0.893	0.804	0.721
x2 = 0.001261, x1 = 0.000183	1.061	0.948	0.858	0.774	0.693
x2 = 0.001261, x1 = 0.0005491	1.071	0.959	0.866	0.781	0.7

CCCC[n+]1ccn(C)c1.N#C[S-] + CCCC[n+]1ccn(C)c1.O=S(=O)([N-]S(=O)(=O)C(F)(F)F)C(F)(F)F
100 kPa
Settings	viscosity [mPa·s]
283.15 K, x2 = 0.25	133.5
288.15 K, x2 = 0	104.5

OCC(F)(F)F + CCCC[n+]1ccn(C)c1.O=S(=O)([N-]S(=O)(=O)C(F)(F)F)C(F)(F)F
101 kPa
Settings	viscosity [mPa·s]
278.15 K, x1 = 0.2626	65.4
278.15 K, x1 = 0.4753	30.28
278.15 K, x1 = 0.6153	16.99
278.15 K, x1 = 0.7568	9.09
293.15 K, x1 = 0.6153	10.18
298.15 K, x1 = 0.2626	27.45
298.15 K, x1 = 0.7568	5.03
313.15 K, x1 = 0.4753	9.42
318.15 K, x1 = 0.4753	8.31
323.15 K, x1 = 1	1.02
333.15 K, x1 = 0.2626	9.76
